The values below come from patent US20250320202A1, “PRMT5 INHIBITOR, PREPARATION METHOD THEREFOR, AND PHARMACEUTICAL USE THEREOF” (Abbisko Therapeutics Co., Ltd., priority 2022, published 2025).

Bounds are passed on as bounds.

The term IC50 denotes the point on the concentration scale where inhibition reaches its midpoint. The low end stands for higher potency, the high end for lower potency.

The subject of assay [1] is HCT116 MTAP wild-type cells. Kind of assay: Human colon cancer HCT116 cell proliferation inhibition test (CellTiter-Glo, 6 days), MTAP wild-type cells. The class given is cell-based. The settings on record: HCT-116, 144 h. Here is the method:
(§1) 1. HCT116 MTAP knockout and MTAP wild-type cells were plated in 96-well flat bottom plates, and cultured overnight with McCoy's 5A medium containing 10% fetal bovine serum+1% penicillin-streptomycin at 37° C. and 5% CO2.
(§2) 2. On the next day, the compound was dissolved with DMSO, diluted with DMSO and medium successively and transferred to the cell plate. The final concentration of the compound was 10 μM, the compound was diluted 4 times, with 9 concentration gradients, and DMSO control was added.
(§3) 3. Cells that have not been treated with the compound were removed. CellTiter-Glo Luminescent Cell Viability Assay (Promega) was used to detect cell viability, the operation was performed with reference to the package insert of the kit, and then the cell plate was placed on EnVision Multilabel Reader to detect the cold light signal.
(§4) 4. Meanwhile, the cell plate treated with the compound was cultured at 37° C. and 5% CO2 for 6 consecutive days.
(§5) 5. Then, CellTiter-Glo was also used to detect cell viability.
(§6) 6. Finally, the four-parameter dose-response curve module of GraphPad Prism v 9.2.0 software was used to plot the dose-response curve and calculate the IC50 for proliferation inhibition (unit: nM).
In general terms: In ATP-based viability assays light output follows the ATP content of the culture.

Assay [2] concerns HCT116 MTAP knockout cells. Briefly: Human colon cancer HCT116 cell proliferation inhibition test (CellTiter-Glo, 6 days), MTAP knockout cells. In kind it is cell-based. The settings on record: HCT-116, 144 h. Here is the method:
as §1, §2, §3, §4, §5, §6

With `Cn1cc(N(C(=O)c2ccc3nc(N)c4ccncc4c3c2)C2CCc3cc(C(F)(F)F)ccc32)cn1` (centres unmarked) [Example 132, 5-amino-N-(1-methyl-1H-pyrazol-4-yl)-N-(5-(trifluoromethyl)-2,3-dihydro-1H-inden-1-yl)benzo[c][2,6]naphthyridin-9-carboxamide], the values for the IC50 in assay [1] and in assay [2] were 1950 nM and 44 nM, respectively.
The like results for `Cn1cc(N(C(=O)c2ccc3nc(N)c4ccncc4c3c2)C2COc3cc(C(F)(F)F)ccc32)cn1` (centres unmarked) [Example 133, 5-amino-N-(1-methyl-1H-pyrazol-4-yl)-N-(6-(trifluoromethyl)-2,3-dihydrobenzofuran-3-yl)benzo[c][2,6]naphthyridin-9-carboxamide] were, in that order, 708 nM and 8 nM.
For `Cn1cc(N(C(=O)c2cc3c4c(c(N)nc3cc2F)COC4)C2CCc3nc(C(F)(F)F)ccc32)cn1` (centres unmarked) [Example 160, 4-amino-7-fluoro-N-(1-methyl-1H-pyrazol-4-yl)-N-(2-(trifluoromethyl)-6,7-dihydro-5H-cyclopenta[b]pyridin-5-yl)-1,3-dihydrofuro[3,4-c]quinolin-8-carboxamide], the IC50 in assay [1] came to 335 nM; in assay [2], 17 nM.
Turning to `Cn1cc(N(C(=O)c2ccc3nc(N)c4c(cnn4C)c3c2)C2COc3cc(C(F)(F)F)ccc32)cn1` (centres unmarked) [Example 165, 4-amino-3-methyl-N-(1-methyl-1H-pyrazol-4-yl)-N-(6-(trifluoromethyl)-2,3-dihydrobenzofuran-3-yl)-3H-pyrazolo[3,4-c]quinolin-8-carboxamide], the IC50 is 2510 nM in assay [1] and 35 nM in assay [2].
The like results for `Cn1ccc(N(C(=O)c2cc3c(cc2F)nc(N)c2cnn(C)c23)C2CCc3cc(C(F)(F)F)ccc32)n1` (centres unmarked) [Example 168, 4-amino-7-fluoro-1-methyl-N-(1-methyl-1H-pyrazol-3-yl)-N-(5-(trifluoromethyl)-2,3-dihydro-1H-inden-1-yl)-1H-pyrazolo[4,3-c]quinolin-8-carboxamide] were, in that order, 276 nM and 0.3 nM.
`Cn1ncc2c(N)nc3cc(O)c(C(=O)N(c4nccs4)[C@@H]4CCc5cc(C(F)(F)F)ccc54)cc3c21` [Example 184, (R)-4-amino-7-hydroxy-1-methyl-N-(thiazol-2-yl)-N-(5-(trifluoromethyl)-2,3-dihydro-1H-inden-1-yl)-1H-pyrazolo[4,3-c]quinolin-8-carboxamide]: the IC50 in assay [1] and in assay [2] was > 10000 nM in each case.
Take `Cn1ncc2c(N)nc3cc(F)c(C(=O)N(CC(F)(F)F)[C@@H]4COc5cc(C(F)(F)F)ccc54)cc3c21` [Example 185, (S)-4-amino-7-fluoro-1-methyl-N-(2,2,2-trifluoroethyl)-N-(6-(trifluoromethyl)-2,3-dihydrobenzofuran-3-yl)-1H-pyrazolo[4,3-c]quinolin-8-carboxamide]: the IC50 is 1260 nM in assay [1] and 28 nM in assay [2].
The corresponding values for `Cn1ncc2c(N)nc3cc(F)c(C(=O)N(CC(F)(F)F)[C@H]4COc5cc(C(F)(F)F)ccc54)cc3c21` [Example 186, (R)-4-amino-7-fluoro-1-methyl-N-(2,2,2-trifluoroethyl)-N-(6-(trifluoromethyl)-2,3-dihydrobenzofuran-3-yl)-1H-pyrazolo[4,3-c]quinolin-8-carboxamide] are > 10000 nM and 506 nM.
The like results for `Cn1cc(N(C(=O)c2ccc3nc(N)c4c(cnn4C)c3c2)[C@@H]2COc3cc(C(F)(F)F)ccc32)cn1` [Example 187, (S)-4-amino-3-methyl-N-(1-methyl-1H-pyrazol-4-yl)-N-(6-(trifluoromethyl)-2,3-dihydrobenzofuran-3-yl)-3H-pyrazolo[3,4-c]quinolin-8-carboxamide] were, in that order, 2440 nM and 50 nM.
The corresponding values for `Cn1cc(N(C(=O)c2ccc3nc(N)c4c(cnn4C)c3c2)[C@H]2COc3cc(C(F)(F)F)ccc32)cn1` [Example 188, (R)-4-amino-3-methyl-N-(1-methyl-1H-pyrazol-4-yl)-N-(6-(trifluoromethyl)-2,3-dihydrobenzofuran-3-yl)-3H-pyrazolo[3,4-c]quinolin-8-carboxamide] are > 10000 nM and 2640 nM.
Regarding `Nc1nc2ccc(C(=O)N(CC3CC3)[C@H]3COc4cc(C(F)(F)F)ccc43)cc2c2cnccc12` [Example 193, (R)-5-amino-N-(cyclopropylmethyl)-N-(6-(trifluoromethyl)-2,3-dihydrobenzofuran-3-yl)benzo[c][2,6]naphthyridin-9-carboxamide], the IC50 in assay [1] is 9090 nM; in assay [2] it was 452 nM.
The corresponding values for `Nc1nc2ccc(C(=O)N(CC3CC3)[C@@H]3COc4nc(C(F)(F)F)ccc43)cc2c2cnccc12` [Example 195, (S)-5-amino-N-(cyclopropylmethyl)-N-(6-(trifluoromethyl)-2,3-dihydrofuro[2,3-b]pyridin-3-yl)benzo[c][2,6]naphthyridin-9-carboxamide] are 423 nM and 8.6 nM.
Take `Cn1ccc(N(C(=O)c2cc3c(cc2F)nc(N)c2cnn(C)c23)[C@@H]2CCc3cc(C(F)(F)F)ccc32)n1` [Example 197, (R)-4-amino-7-fluoro-1-methyl-N-(1-methyl-1H-pyrazol-3-yl)-N-(5-(trifluoromethyl)-2,3-dihydro-1H-inden-1-yl)-1H-pyrazolo[4,3-c]quinolin-8-carboxamide]: the IC50 in assay [1] came out at 264 nM; in assay [2] it was 0.9 nM.
Take `Cn1cc(N(C(=O)c2cc3c4c(c(N)nc3cc2F)COC4)[C@@H]2COc3cc(C(F)(F)F)ccc32)cn1` [Example 201, (S)-4-amino-7-fluoro-N-(1-methyl-1H-pyrazol-4-yl)-N-(6-(trifluoromethyl)-2,3-dihydrobenzofuran-3-yl)-1,3-dihydrofuro[3,4-c]quinolin-8-carboxamide]: the 50% inhibitory concentration (IC50) came to 78 nM in assay [1] and 2 nM in assay [2].
The corresponding values for `C[C@H]1OCc2c1c(N)nc1cc(F)c(C(=O)N(c3cnn(C)c3)[C@@H]3COc4cc(C(F)(F)F)ccc43)cc21` [Example 202, (R)-4-amino-7-fluoro-3-methyl-N-(1-methyl-1H-pyrazol-4-yl)-N-((S)-6-(trifluoromethyl)-2,3-dihydrobenzofuran-3-yl)-1,3-dihydrofuro[3,4-c]quinolin-8-carboxamide] are 36 nM and 2 nM.
The corresponding values for `Cn1ncc2c(N)nc3cc(F)c(C(=O)N(c4cnsc4)[C@@H]4CCc5cc(C(F)(F)F)ccc54)cc3c21` [Example 203, (R)-4-amino-7-fluoro-N-(isothiazol-4-yl)-1-methyl-N-(5-(trifluoromethyl)-2,3-dihydro-1H-inden-1-yl)-1H-pyrazolo[4,3-c]quinolin-8-carboxamide] are 104 nM and 9 nM.
Turning to `Nc1nc2ccc(C(=O)N(c3cnsc3)[C@@H]3CCc4cc(C(F)(F)F)ccc43)cc2c2cnccc12` [Example 204, (R)-5-amino-N-(isothiazol-4-yl)-N-(5-(trifluoromethyl)-2,3-dihydro-1H-inden-1-yl)benzo[c][2,6]naphthyridin-9-carboxamide], the IC50 came to 293 nM in assay [1] and 6 nM in assay [2].
As to `Cn1cc(N(C(=O)c2cc3c(cc2F)nc(N)c2cnn(C)c23)[C@@H]2COc3cc(C(F)(F)F)ccc32)cn1` [Example 205, (S)-4-amino-7-fluoro-1-methyl-N-(1-methyl-1H-pyrazol-4-yl)-N-(6-(trifluoromethyl)-2,3-dihydrobenzofuran-3-yl)-1H-pyrazolo[4,3-c]quinolin-8-carboxamide], the half-maximal inhibitory concentration (IC50) in assay [1] was determined as 64 nM; in assay [2], 0.8 nM.
On to `Cn1cc(N(C(=O)c2cc3c(cc2F)nc(N)c2cnn(C)c23)[C@H]2COc3cc(C(F)(F)F)ccc32)cn1` [Example 206, (R)-4-amino-7-fluoro-1-methyl-N-(1-methyl-1H-pyrazol-4-yl)-N-(6-(trifluoromethyl)-2,3-dihydrobenzofuran-3-yl)-1H-pyrazolo[4,3-c]quinolin-8-carboxamide], for which the figures for the IC50 in assay [1] and in assay [2] were 8470 nM and 82 nM, respectively.
With `C[C@H]1OCc2c1c(N)nc1cc(F)c(C(=O)N(c3cnn(C)c3)[C@@H]3COc4nc(C(F)(F)F)ccc43)cc21` [Example 208, (R)-4-amino-7-fluoro-3-methyl-N-(1-methyl-1H-pyrazol-4-yl)-N-((S)-6-(trifluoromethyl)-2,3-dihydrofuro[2,3-b]pyridin-3-yl)-1,3-dihydrofuro[3,4-c]quinolin-8-carboxamide], the results for the IC50 in assay [1] and in assay [2] were 130 nM and 4 nM, respectively.
With `Cn1cc(N(C(=O)c2cc3c4c(c(N)nc3cc2F)COC4)[C@@H]2COc3nc(C(F)(F)F)ccc32)cn1` [Example 209, (S)-4-amino-7-fluoro-N-(1-methyl-1H-pyrazol-4-yl)-N-(6-(trifluoromethyl)-2,3-dihydrofuro[2,3-b]pyridin-3-yl)-1,3-dihydrofuro[3,4-c]quinolin-8-carboxamide], the half-maximal inhibitory concentration (IC50) in assay [1] amounted to 279 nM; in assay [2] it was 4 nM.
The corresponding values for `Nc1nc2ccc(C(=O)N(c3ncccn3)C3CCc4cc(C(F)(F)F)ccc43)cc2c2cnccc12` (centres unmarked) [Example 210, 5-amino-N-(pyrimidin-2-yl)-N-(5-(trifluoromethyl)-2,3-dihydro-1H-inden-1-yl)benzo[c][2,6]naphthyridin-9-carboxamide] are 7400 nM and 63 nM.
